Data taken from BindingDB's records for doi:10.1016/s0960-894x(03)00160-4 (Universidad Complutense, 2003).

Target: T1, Alpha-1A/Alpha-1B/Alpha-1D adrenergic receptor (Rattus norvegicus, UniProt P15823+P43140+P23944)
T1 sequence (P15823 whole entry): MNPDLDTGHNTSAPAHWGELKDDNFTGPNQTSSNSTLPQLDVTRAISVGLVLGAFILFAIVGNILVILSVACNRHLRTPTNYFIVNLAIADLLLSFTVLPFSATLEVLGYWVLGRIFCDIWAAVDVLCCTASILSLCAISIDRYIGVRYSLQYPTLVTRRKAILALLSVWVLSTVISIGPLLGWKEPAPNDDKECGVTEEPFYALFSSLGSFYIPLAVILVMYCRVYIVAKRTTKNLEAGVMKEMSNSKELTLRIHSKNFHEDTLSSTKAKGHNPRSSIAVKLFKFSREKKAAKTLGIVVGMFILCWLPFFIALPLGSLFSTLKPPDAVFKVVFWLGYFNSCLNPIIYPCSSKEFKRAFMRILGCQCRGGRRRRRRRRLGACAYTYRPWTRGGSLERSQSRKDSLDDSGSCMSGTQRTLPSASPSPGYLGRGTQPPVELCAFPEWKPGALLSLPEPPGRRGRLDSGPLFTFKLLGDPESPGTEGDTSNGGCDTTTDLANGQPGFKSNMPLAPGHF
T1 sequence (P43140 whole entry): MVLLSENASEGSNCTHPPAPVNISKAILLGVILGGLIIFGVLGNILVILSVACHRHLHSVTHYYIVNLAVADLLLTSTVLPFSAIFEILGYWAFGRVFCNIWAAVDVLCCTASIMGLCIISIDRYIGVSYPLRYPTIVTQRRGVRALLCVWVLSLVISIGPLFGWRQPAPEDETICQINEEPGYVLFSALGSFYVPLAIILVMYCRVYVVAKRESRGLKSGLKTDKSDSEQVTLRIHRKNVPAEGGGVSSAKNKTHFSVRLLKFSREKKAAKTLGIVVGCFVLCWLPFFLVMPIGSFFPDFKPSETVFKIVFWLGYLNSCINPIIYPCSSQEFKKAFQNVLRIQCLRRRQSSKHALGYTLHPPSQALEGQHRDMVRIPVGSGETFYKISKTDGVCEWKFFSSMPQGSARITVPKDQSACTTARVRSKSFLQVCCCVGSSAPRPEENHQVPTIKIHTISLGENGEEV
T1 sequence (P23944 whole entry): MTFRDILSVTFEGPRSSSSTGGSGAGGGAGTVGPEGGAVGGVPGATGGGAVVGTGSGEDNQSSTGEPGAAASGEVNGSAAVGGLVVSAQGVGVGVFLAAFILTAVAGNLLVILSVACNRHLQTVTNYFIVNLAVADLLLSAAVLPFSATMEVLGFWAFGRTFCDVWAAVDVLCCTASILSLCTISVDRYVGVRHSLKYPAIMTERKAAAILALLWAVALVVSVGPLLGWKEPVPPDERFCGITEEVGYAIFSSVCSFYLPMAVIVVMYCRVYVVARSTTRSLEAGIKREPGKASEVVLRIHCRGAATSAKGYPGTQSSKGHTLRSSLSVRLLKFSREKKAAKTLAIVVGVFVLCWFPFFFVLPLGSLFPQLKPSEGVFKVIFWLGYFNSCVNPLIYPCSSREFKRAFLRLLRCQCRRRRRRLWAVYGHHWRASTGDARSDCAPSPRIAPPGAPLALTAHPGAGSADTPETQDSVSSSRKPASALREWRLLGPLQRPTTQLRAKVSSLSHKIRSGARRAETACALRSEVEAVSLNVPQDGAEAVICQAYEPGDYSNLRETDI
Experiment: Binding affinity towards Alpha-1 adrenergic receptor in rat cerebral cortex membranes using [3H]prazosin as radioligand

Ki: > 1 µM
Compound: O=c1n(CN2CCN(c3cccc4ccccc34)CC2)c(O)c2n1CCC2 [2-(4-Naphthalen-1-yl-piperazin-1-ylmethyl)-tetrahydro-pyrrolo[1,2-c]imidazole-1,3-dione]
